What follows are molecules tested against T1, Human Glucocorticoid Receptor (Homo sapiens, UniProt P04150) (assay: Competition Binding in IM-9 Human Glucocorticoid Receptor (GR IM-9)). Conditions: cytosol from IM-9 cell line, 1.5 nM [3H]-Dexamethasone, 4° C. for 6 hours.
T1 construct: endogenous in cells; host or cells: cytosol from IM-9 cell line
T1 sequence (P04150 1-777): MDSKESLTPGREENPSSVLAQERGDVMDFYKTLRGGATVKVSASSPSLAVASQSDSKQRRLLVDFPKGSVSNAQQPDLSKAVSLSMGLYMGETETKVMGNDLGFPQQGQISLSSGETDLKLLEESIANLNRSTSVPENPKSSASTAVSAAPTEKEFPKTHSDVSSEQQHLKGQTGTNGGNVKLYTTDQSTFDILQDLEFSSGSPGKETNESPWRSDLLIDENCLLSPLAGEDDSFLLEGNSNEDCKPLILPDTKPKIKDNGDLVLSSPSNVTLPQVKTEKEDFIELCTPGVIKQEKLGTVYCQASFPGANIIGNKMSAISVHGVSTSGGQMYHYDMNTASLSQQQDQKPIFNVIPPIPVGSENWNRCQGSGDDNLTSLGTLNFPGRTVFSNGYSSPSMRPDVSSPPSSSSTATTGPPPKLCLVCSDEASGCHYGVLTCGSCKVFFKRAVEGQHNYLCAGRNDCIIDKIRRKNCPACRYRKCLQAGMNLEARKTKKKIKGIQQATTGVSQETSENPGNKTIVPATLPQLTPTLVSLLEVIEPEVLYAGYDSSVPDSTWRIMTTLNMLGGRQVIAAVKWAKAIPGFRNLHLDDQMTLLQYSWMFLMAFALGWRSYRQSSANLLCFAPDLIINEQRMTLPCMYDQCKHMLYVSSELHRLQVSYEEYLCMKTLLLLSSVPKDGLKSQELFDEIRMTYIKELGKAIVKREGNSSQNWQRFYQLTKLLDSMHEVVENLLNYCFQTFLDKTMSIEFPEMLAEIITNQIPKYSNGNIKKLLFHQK
Method: Competition Binding in IM-9 Human Glucocorticoid Receptor (GR IM-9)
Glucocorticoid receptor competition binding assays were carried out in a polypropilene 96-well plate. In each well was incubated 100 μg of cytosol from IM-9 cell line, 1.5 nM [3H]-Dexamethasone (71 Ci/mmol, 1 mCi/ml, Perkin Elmer NET1192001MC) and compounds studied and standard. Non-specific binding was determined in the presence of Triamcinolone 10 μM (Sigma Aldrich T6376).
The reaction mixture (Vt: 200 μl/well) was incubated at 4° C. for 6 hours, 180 μL was transferred to GF/B 96-well plate (Millipore, Madrid, Spain) pretreated with 0.5% of PEI and treated with binding buffer (TES 10 mM, sodium molybdate 10 mM, EDTA 1 mM, pH 7.4, 2-mercaptoethanol 20 mM, Glycerol 10%) after was filtered and washed six times with 250 μl wash buffer (TES 10 mM, sodium molybdate 10 mM, EDTA 1 mM, pH 7.4, 2-mercaptoethanol 20 mM Glycerol 10%), before measuring in a microplate beta scintillation counter (Microbeta Trilux, PerkinElmer, Madrid, Spain).

SMILES	IC50
CC(=O)C1=C(C)NC(C2CC2)=C(C(=O)OC2CCCC2)C1c1csc2ncccc12 (stereo not drawn) [Example C100, Cyclopentyl 5-acetyl-2-cyclopropyl-6-methyl-4-(thieno[2,3-b]pyridin-3-yl)-1,4-dihydropyridine-3-carboxylate]	< 100 nM
CC(=O)C1=C(C)NC(C2CC2)=C(C(=O)OC(C)(C)c2ccccc2)C1c1csc2ncccc12 (stereo not drawn) [Example C92, 2-phenylpropan-2-yl 5-acetyl-2-cyclopropyl-6-methyl-4-(thieno[2,3-b]pyridin-3-yl)-1,4-dihydropyridine-3-carboxylate]	< 100 nM
COC(=O)C1=C(C)NC(C2CC2)=C(C(=O)OC)C1c1csc2c(C#N)cccc12 (stereo not drawn) [Example C103, Dimethyl 4-(7-cyanobenzo[b]thiophen-3-yl)-2-cyclopropyl-6-methyl-1,4-dihydropyridine-3,5-dicarboxylate]	< 100 nM
CC1=C(C#N)C(c2csc3c(C#N)cccc23)C(C(=O)OCC2CC2)=C(C2CC2)N1 (stereo not drawn) [Example C111, Cyclopropylmethyl 5-cyano-4-(7-cyanobenzo[b]thiophen-3-yl)-2-cyclopropyl-6-methyl-1,4-dihydropyridine-3-carboxylate]	< 100 nM
COC(=O)C1=C(C2CCCCC2)NC(C)=C(C(C)=O)C1c1csc2c(Br)cccc12 (stereo not drawn) [Example C106, Methyl 5-acetyl-4-(7-bromobenzo[b]thiophen-3-yl)-2-cyclohexyl-6-methyl-1,4-dihydropyridine-3-carboxylate]	100 to 1000 nM
COC(=O)C1=C(C2CCC2)NC(C)=C(C(C)=O)C1c1csc2c(Br)cccc12 (stereo not drawn) [Example C102, Methyl 5-acetyl-4-(7-bromobenzo[b]thiophen-3-yl)-2-cyclobutyl-6-methyl-1,4-dihydropyridine-3-carboxylate]	100 to 1000 nM
COC(=O)C1=C(C(F)(F)F)NC(C)=C(C(C)=O)C1c1csc2c(Br)cccc12 (stereo not drawn) [Example C83, Methyl 5-acetyl-4-(7-bromobenzo[b]thiophen-3-yl)-6-methyl-2-(trifluoromethyl)-1,4-dihydropyridine-3-carboxylate]	100 to 1000 nM
CC(=O)C1=C(C)NC(C2CC2)=C(C(=O)OC2CCCCC2)C1c1csc2ncccc12 (stereo not drawn) [Example C91, Cyclohexyl 5-acetyl-2-cyclopropyl-6-methyl-4-(thieno[2,3-b]pyridin-3-yl)-1,4-dihydropyridine-3-carboxylate]	< 100 nM
CC(=O)C1=C(C)NC(C2CC2)=C(C(=O)OCC2CC2)C1c1csc2c(Br)cccc12 (stereo not drawn) [Example C84, Cyclopropylmethyl 5-acetyl-4-(7-bromobenzo[b]thiophen-3-yl)-2-cyclopropyl-6-methyl-1,4-dihydropyridine-3-carboxylate]	< 100 nM
COC(=O)C1=C(C2CC2)NC(C2CC2)=C(C(=O)OCC2CC2)C1c1csc2c(C#N)cccc12 (stereo not drawn) [Example C110, 3-(cyclopropylmethyl) 5-methyl 4-(7-cyanobenzo[b]thiophen-3-yl)-2,6-dicyclopropyl-1,4-dihydropyridine-3,5-dicarboxylate]	< 100 nM
CC(=O)C1=C(C)NC(C2CC2)=C(C(=O)OCc2cccc(Cl)c2)C1c1csc2ncccc12 (stereo not drawn) [Example C94, 3-chlorobenzyl 5-acetyl-2-cyclopropyl-6-methyl-4-(thieno[2,3-b]pyridin-3-yl)-1,4-dihydropyridine-3-carboxylate]	< 100 nM
COC(=O)C1=C(C2CC2)NC(C2CC2)=C(C(=O)OC)C1c1csc2ccc(Cl)cc12 [Example J25-a, Dimethyl 4-(5-chlorobenzo[b]thiophen-3-yl)-2,6-dicyclopropyl-1,4-dihydropyridine-3,5-dicarboxylate]	100 to 1000 nM
COC(=O)C1=C(C2CC2)NC(C)=C(C(C)=O)C1c1csc2c(F)cccc12 (stereo not drawn) [Example C98, Methyl 5-acetyl-2-cyclopropyl-4-(7-fluorobenzo[b]thiophen-3-yl)-6-methyl-1,4-dihydropyridine-3-carboxylate]	100 to 1000 nM
CC(=O)C1=C(C)NC(C2CC2)=C(C(=O)OC(C)(C)c2ccc(F)cc2)C1c1csc2c(Br)cccc12 (stereo not drawn) [Example C96, 2-(4-fluorophenyl)propan-2-yl 5-acetyl-4-(7-bromobenzo[b]thiophen-3-yl)-2-cyclopropyl-6-methyl-1,4-dihydropyridine-3-carboxylate]	100 to 1000 nM

Now from value to molecule:

IC50	SMILES
< 100 nM	CC1=C(C(=O)OCC(F)(F)F)C(c2csc3c(C#N)cccc23)C(C(=O)OCC2CC2)=C(N)N1 (stereo not drawn) [Example D51, 3-(Cyclopropylmethyl) 5-(2,2,2-trifluoroethyl) 2-amino-4-(7-cyanobenzo[b]thiophen-3-yl)-6-methyl-1,4-dihydropyridine-3,5-dicarboxylate]
< 100 nM	CC(=O)C1=C(C)NC(N)=C(C(=O)OCc2ccc(F)cc2)C1c1csc2c(C#N)cccc12 (stereo not drawn) [Example D13, 4-fluorobenzyl 5-acetyl-2-amino-4-(7-cyanobenzo[b]thiophen-3-yl)-6-methyl-1,4-dihydropyridine-3-carboxylate]
< 100 nM	COC(=O)C1=C(N)NC(C2CC2)=C(C(=O)OCC2CC2)C1c1csc2c(C#N)cccc12 (stereo not drawn) [Example D21, 5-(cyclopropylmethyl) 3-methyl 2-amino-4-(7-cyanobenzo[b]thiophen-3-yl)-6-cyclopropyl-1,4-dihydropyridine-3,5-dicarboxylate]
< 100 nM	COC(=O)C1=C(N)NC(C)=C(C#N)C1c1csc2c(C#N)cccc12 (stereo not drawn) [Example D12, Methyl 2-amino-5-cyano-4-(7-cyanobenzo[b]thiophen-3-yl)-6-methyl-1,4-dihydropyridine-3-carboxylate]
100 to 1000 nM	CC(=O)C1=C(C)NC(N)=C(C(=O)OCC2CC2)C1c1csc2cc(C#N)ccc12 (stereo not drawn) [Example D28, Cyclopropylmethyl 5-acetyl-2-amino-4-(6-cyanobenzo[b]thiophen-3-yl)-6-methyl-1,4-dihydropyridine-3-carboxylate]
< 100 nM	C#CCOC(=O)C1=C(N)NC(C)=C(C(=O)OC)C1c1csc2c(C#N)cccc12 (stereo not drawn) [Example D55, 5-Methyl 3-prop-2-yn-1-yl 2-amino-4-(7-cyanobenzo[b]thiophen-3-yl)-6-methyl-1,4-dihydropyridine-3,5-dicarboxylate]
< 100 nM	COC(=O)C1=C(C)NC(N)=C(C(=O)OCC(F)(F)F)C1c1csc2c(C#N)cccc12 (stereo not drawn) [Example D50, 5-Methyl 3-(2,2,2-trifluoroethyl) 2-amino-4-(7-cyanobenzo[b]thiophen-3-yl)-6-methyl-1,4-dihydropyridine-3,5-dicarboxylate]
100 to 1000 nM	COC(=O)C1=C(N)NC(N)=C(C(=O)OC)C1c1csc2c(C#N)cccc12 [Example D20, dimethyl 2,6-diamino-4-(7-cyanobenzo[b]thiophen-3-yl)-1,4-dihydropyridine-3,5-dicarboxylate]
≥ 1000 nM	COC(=O)C1=C(C2CC2)NC(C)=C(C(C)=O)C1c1csc2c(-c3ccccc3)cccc12 (stereo not drawn) [Example N1, Methyl 5-acetyl-2-cyclopropyl-6-methyl-4-(7-phenylbenzo[b]thiophen-3-yl)-1,4-dihydropyridine-3-carboxylate]
< 100 nM	COC(=O)C1=C(C)NC(N)=C(C(=O)OCC(C)(C)F)C1c1csc2c(C#N)cccc12 (stereo not drawn) [Example D53, 3-(2-Fluoro-2-methylpropyl) 5-methyl 2-amino-4-(7-cyanobenzo[b]thiophen-3-yl)-6-methyl-1,4-dihydropyridine-3,5-dicarboxylate]
≥ 1000 nM	CC(=O)C1=C(C)NC(C2CC2)=C(C(=O)OCc2ccncc2)C1c1csc2ncccc12 (stereo not drawn) [Example J36, Pyridin-4-ylmethyl 5-acetyl-2-cyclopropyl-6-methyl-4-(thieno[2,3-b]pyridin-3-yl)-1,4-dihydropyridine-3-carboxylate]
< 100 nM	CC(=O)C1=C(C)NC(N)=C(C(=O)OCC2CCCC2)C1c1csc2c(C#N)cccc12 (stereo not drawn) [Example D16, Cyclopentylmethyl 5-acetyl-2-amino-4-(7-cyanobenzo[b]thiophen-3-yl)-6-methyl-1,4-dihydropyridine-3-carboxylate]
≥ 1000 nM	COC(=O)C1=C(N)NC(C)=C(C(C)=O)C1c1csc2ncc(F)cc12 (stereo not drawn) [Example D14, Methyl 5-acetyl-2-amino-4-(5-fluorothieno[2,3-b]pyridin-3-yl)-6-methyl-1,4-dihydropyridine-3-carboxylate]

— patent publication US11453660B2, “Androgen receptor and glucocorticoid receptor modulators” (ONCOSTELLAE, S.L., priority 2017, dated 2022)
